Experimental data from US20060063759A1, “Tricyclic steroid hormone nuclear receptor modulators” (priority 2002, published 2006).

Legend:
human MR = biological target: T1, human MR (Homo sapiens, UniProt P08235); test: Mineralocorticoid Receptor Binding Assay ([3H]-aldosterone); details: [3H]-aldosterone binding, human MR expressed in Sf9 cells; read-out: MR Ki
T1 construct: The full length human MR gene is cloned from a human kidney or human brain cDNA library; His tag from the pAcHLT vector (own knowledge); made in house; host or cells: Sf9 insect cells (baculovirus, pAcHLT transfer vector)
T1 sequence (P08235 1-984): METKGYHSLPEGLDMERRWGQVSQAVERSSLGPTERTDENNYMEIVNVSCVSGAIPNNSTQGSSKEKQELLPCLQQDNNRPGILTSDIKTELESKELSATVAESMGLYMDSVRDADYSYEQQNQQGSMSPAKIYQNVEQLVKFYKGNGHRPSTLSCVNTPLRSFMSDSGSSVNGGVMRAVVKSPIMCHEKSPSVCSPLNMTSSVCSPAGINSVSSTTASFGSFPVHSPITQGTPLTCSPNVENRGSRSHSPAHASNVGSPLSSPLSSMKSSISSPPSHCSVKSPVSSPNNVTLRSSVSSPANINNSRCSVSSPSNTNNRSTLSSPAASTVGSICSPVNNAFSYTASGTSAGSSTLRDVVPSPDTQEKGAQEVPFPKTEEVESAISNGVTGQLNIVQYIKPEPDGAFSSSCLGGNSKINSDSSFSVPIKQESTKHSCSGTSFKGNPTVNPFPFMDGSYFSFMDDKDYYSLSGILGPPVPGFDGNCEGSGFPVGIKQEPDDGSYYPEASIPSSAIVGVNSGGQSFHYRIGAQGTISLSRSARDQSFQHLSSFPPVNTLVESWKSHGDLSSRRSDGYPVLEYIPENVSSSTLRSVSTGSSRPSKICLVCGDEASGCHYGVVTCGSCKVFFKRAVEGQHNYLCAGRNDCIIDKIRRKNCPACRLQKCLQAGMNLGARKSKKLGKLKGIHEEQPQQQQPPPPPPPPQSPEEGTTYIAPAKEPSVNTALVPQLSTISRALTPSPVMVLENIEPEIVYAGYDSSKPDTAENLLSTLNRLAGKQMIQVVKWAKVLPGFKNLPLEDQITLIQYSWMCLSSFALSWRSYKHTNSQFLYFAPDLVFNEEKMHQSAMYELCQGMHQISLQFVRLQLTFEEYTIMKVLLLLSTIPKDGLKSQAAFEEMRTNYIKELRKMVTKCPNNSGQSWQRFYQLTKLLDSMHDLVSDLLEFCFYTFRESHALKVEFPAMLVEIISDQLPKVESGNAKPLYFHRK
In short: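 Lysate supernatant of Sf9 cells expressing full-length human MR (20-25 μg protein) was incubated with 0.5 nM [3H]-aldosterone and test compound in molybdate/Tris/phosphate/glycerol buffer, pH 7.5, ~16 h at 4 °C. Bound ligand was filtered and counted by scintillation; IC50 is the concentration halving [3H]-aldosterone binding.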

glucocorticoid receptor = biological target: T2, glucocorticoid receptor (Homo sapiens, UniProt P04150); test: Glucocorticoid Receptor Binding Assay ([3H]-dexamethasone, A549 cell extract); details: [3H]-dexamethasone binding, read-out: GR Ki
T2 construct: containing 50-200 ug of A549 cell extract and 1.86 nM [^3H]-dexamethasone; host or cells: A549 human lung epithelial cells (sonicated cell extract)
T2 sequence (P04150 1-777): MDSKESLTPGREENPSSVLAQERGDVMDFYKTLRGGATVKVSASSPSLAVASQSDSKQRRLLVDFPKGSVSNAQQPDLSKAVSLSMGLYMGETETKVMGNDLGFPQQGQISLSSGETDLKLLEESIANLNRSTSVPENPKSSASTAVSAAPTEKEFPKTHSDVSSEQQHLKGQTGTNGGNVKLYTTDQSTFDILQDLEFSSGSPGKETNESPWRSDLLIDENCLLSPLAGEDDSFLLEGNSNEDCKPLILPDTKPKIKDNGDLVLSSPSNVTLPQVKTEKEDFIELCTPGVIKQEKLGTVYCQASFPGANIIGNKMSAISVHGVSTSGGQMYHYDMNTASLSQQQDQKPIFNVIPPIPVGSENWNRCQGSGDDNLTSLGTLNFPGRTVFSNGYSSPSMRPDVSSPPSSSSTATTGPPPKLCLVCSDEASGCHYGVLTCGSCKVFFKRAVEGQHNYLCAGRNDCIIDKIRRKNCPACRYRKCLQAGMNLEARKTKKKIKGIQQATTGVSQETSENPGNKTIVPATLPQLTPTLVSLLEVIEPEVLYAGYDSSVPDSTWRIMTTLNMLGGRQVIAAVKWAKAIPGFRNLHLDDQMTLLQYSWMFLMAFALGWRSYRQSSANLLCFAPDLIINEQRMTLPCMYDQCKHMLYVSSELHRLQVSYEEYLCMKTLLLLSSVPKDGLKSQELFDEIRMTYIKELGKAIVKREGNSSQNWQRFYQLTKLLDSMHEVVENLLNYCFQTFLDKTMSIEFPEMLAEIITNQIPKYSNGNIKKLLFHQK
In short: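 A549 cell extract (50–200 ug) incubated with 1.86 nM [3H]-dexamethasone and test compound for 16 h at 4 °C in Tris-HCl pH 7.2 buffer with glycerol and molybdate. Unbound radioligand removed by dextran-coated charcoal, then supernatant bound counts measured by scintillation.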

SMILES	Ki (human MR) [nM]	Ki (glucocorticoid receptor) [nM]
CS(=O)(=O)Nc1cccc(CC2c3ccccc3CCc3c(F)cccc32)c1 (stereo not shown) [Example 187, N-[3-(1-Fluoro-10,11-dihydro-5H-dibenzo[a,d]cyclohepten-5-ylmethyl)-phenyl]-methanesulfonamide]	< 500	< 500
CCCCS(=O)(=O)Nc1ccc(C=C2c3ccccc3CCc3ccccc32)cc1 [Example 109, Butane-1-sulfonic acid [4-(10,11-dihydro-dibenzo[a,d]cyclohepten-5-ylidenemethyl)-phenyl]-amide]	< 500	< 500
Cc1ccccc1CC1c2ccccc2CCc2ccccc21 [Example 131, 5-(2-Methyl-benzyl)-10,11-dihydro-5H-dibenzo[a,d]cycloheptene]	< 500	< 10000
Cc1nc2c(s1)/C(=C\c1cccc(NS(C)(=O)=O)c1)c1ccccc1CC2 [483(b), N-[3-(2-Methyl-9,10-dihydro-3-thia-1-aza-benzo[f]azulen-4-ylidenemethyl)-phenyl]-methanesulfonamide]	< 500	< 500
CNc1cccc(C=C2c3ccccc3CCc3ccccc32)c1 [Example 118, [3-(10,11-Dihydro-dibenzo[a,d]cyclohepten-5-ylidenemethyl)-phenyl]-methyl-amine]	< 500	< 500
CSc1ccc2c(c1)CCc1ccccc1/C2=C/c1cccc(NS(C)(=O)=O)c1 [Example 389]	< 500	< 500
Oc1cccc(C=C2c3ccccc3CCc3c2ccc(Cl)c3Cl)c1 [198(a), 3-(1,2-Dichloro-10,11-dihydro-dibenzo[a,d]cyclohepten-5-ylidenemethyl)-phenol]	< 500	< 500
COc1cc(F)cc(C=C2c3ccccc3CCc3ccccc32)c1 [Example 154, 5-(3-Fluoro-5-methoxy-benzylidene)-10,11-dihydro-5H-dibenzo[a,d]cycloheptene]	< 500	< 1000
COC(=O)Nc1cccc(C=C2c3ccccc3CCc3cc(Cl)ccc32)c1 [Example 396]	< 500	< 500
Cc1ccc(C=C2c3ccccc3CCc3ccccc32)cc1NS(C)(=O)=O [Example 45, N-[5-(10,11-Dihydro-dibenzo[a,d]cyclohepten-5-ylidenemethyl)-2-methyl-phenyl]-methanesulfonamide]	< 500	< 1000
COc1cccc(/C=C2/c3ccccc3CCc3c(O)cccc32)c1 [Example 369]	< 500	< 10000
FC(F)(F)c1cc(CC2c3ccccc3CCc3ccccc32)cc(C(F)(F)F)c1 [Example 141, 5-(3,5-Bis-Trifluoromethyl-benzyl)-10,11-dihydro-5H-dibenzo[a,d]cycloheptene]	< 500	< 500
CS(=O)(=O)Nc1cccc(C=C2c3ccccc3CCc3cc(OCCc4ccccc4)ccc32)c1 [Example 330]	< 500	< 500
O=S(=O)(Nc1cccc(C=C2c3ccccc3CCc3cc(Cl)ccc32)c1)c1ccc(Cl)cc1 [Example 290]	< 500	< 1000
Nc1nc2ccc(C=C3c4ccccc4CCc4ccccc43)cc2[nH]1 [Example 445]	< 500	< 10000
NC(=O)Nc1cccc(C=C2c3ccccc3CCc3ccccc32)c1 [Example 128, [3-(10,11-Dihydro-dibenzo[a,d]cyclohepten-5-ylidenemethyl)-phenyl]-urea]	< 500	< 1000

Other lines, results leading:

Ki (human MR) [nM]	Ki (glucocorticoid receptor) [nM]	SMILES
< 500	< 10000	Nc1cccc(C(=C2c3ccccc3CCc3ccccc32)c2ccc(-c3ccccc3)cc2)c1 [Example 766]
< 500	< 10000	CC(C)n1c(=O)[nH]c2cc(C=C3c4ccc(F)cc4CCc4cc(F)ccc43)ccc21 [Example 464]
< 500	< 500	O=c1[nH]c2cc(/C=C3/c4ccccc4COc4ccccc43)ccc2o1 [Example 619]
< 500	< 1000	Fc1ccc2c(c1)CCc1ncccc1/C2=C/c1cccc(C(F)(F)F)c1 [Example 590]
< 500	< 500	Cc1ccc2c(c1)/C(=C\c1cccc(NS(C)(=O)=O)c1)c1ccccc1CO2 [Example 677]
< 500	< 500	Cn1c(=O)[nH]c2cc(C=C3c4ccccc4CCc4ccccc43)ccc21 [Example 454]
< 500	< 500	CS(=O)(=O)Nc1cccc(C=C2c3ccccc3CCc3occc32)c1 [Example 504]
< 500	< 10000	N#Cc1ccc2c(c1)CCc1ccccc1/C2=C/c1ccc2[nH]c(=O)[nH]c2c1 [Example 455]
< 500	< 500	CS(=O)(=O)Nc1cc(F)cc(/C=C2/c3ccc(F)cc3CCc3nc(C(F)F)ccc32)c1 [Example 594]
< 500	< 500	CS(=O)(=O)Nc1cccc(/C=C2\c3ccc(F)cc3CCc3nc(Cl)sc32)c1 [Example 550]
< 500	< 500	CS(=O)(=O)Nc1cccc(/C=C2\c3ccccc3COc3c(Cl)cccc32)c1 [Example 663]
< 500	< 10000	O=c1[nH]c2ccc(C=C3c4cc(F)ccc4COc4ccccc43)cc2[nH]1 [Example 714]
< 500	< 500	OCc1cccc(/C=C2\c3ccccc3CSc3ccccc32)c1 [Example 699]
< 500	< 10000	O=C1Nc2ccccc2C(=Cc2cccc(Cl)c2)c2ccccc21 (mixture of isomers) [Example 649]
< 500	< 500	CS(=O)(=O)Nc1cccc(/C=C2/c3ccccc3COc3c(Cl)cccc32)c1 [Example 662]
< 500	< 500	CCC/C(=C1\c2ccccc2COc2ccccc21)c1cccc(NS(C)(=O)=O)c1 [Example 801]
< 500	< 500	CS(=O)(=O)Nc1cccc(/C=C2/c3ccccc3COc3cc(C(F)(F)F)ccc32)c1 [Example 682]
< 500	< 10000	Fc1ccc2c(c1)CCc1ncccc1/C2=C/c1ccccc1F [Example 578]
< 500	< 500	CC/C(=C1/c2ccccc2CCc2cc(C)ccc21)c1cccc(NS(C)(=O)=O)c1 [Example 780]
< 500	< 500	CS(=O)(=O)Nc1cccc(/C=C2/c3cc(Cl)ccc3COc3ccccc32)c1 [Example 728]
< 500	< 500	C/C(=C1/c2ccccc2COc2cc(OCC3CC3)ccc21)c1cccc(NS(C)(=O)=O)c1 [Example 814]
< 500	< 500	C/C(=C1/c2ccc(F)cc2CCc2ncccc21)c1cc(F)cc(NS(C)(=O)=O)c1 [Example 836]
